# Where two headings read alike, the source gives them in different places.
# Key:
# [1] = test system: HT-1080 fibrosarcoma cell line; experiment: Cell growth inhibition, SRB assay, HT-1080; assay type: cell-based, human; details: 72-96 h, read-out: IC50 nM (±S.E.) HT-1080
# Procedure: (§1) Cell lines were propagated as monolayers in RPMI-1640 containing 5% FCS, 5% NuSerum IV, 20 mM HEPES, 2 mM L-glutamine at 37° C. in a 5% CO2 humidified atmosphere.
# (§2) Paclitaxel was solubilized in 100% DMSO. TX-001 and 002 were solubilized in sterile H2O acidified with 10% 1 N HCl. For the first experiment, 4.0 mM stocks of TX-001 and 002 were prepared. Solutions of TX-001 and TX-002 contained clear needle-like and cast-like precipitates and were fairly viscous (Experiment 1). For the second experiment (Experiment 2), less concentrated stock solutions (0.4 mM) of each compound were prepared in sterile H2O acidified with 10% 1 N HCl. The same type of precipitates were noted, however neither solution was viscous. All compounds were further diluted in RPMI-1640 containing 10 mM HEPES.
# (§3) Assessment of cell growth inhibition was determined in 96 well microtiter plates according to the method of Skehan et al., “New Colorimetric Cytotoxicity Assay for Anticancer-Drug Screening, Articles 82(13):1107-1112 (1990). Briefly, cells were plated with 400-1800 cells/well in 96 well plates and incubated at 37° C. 15-18 hr prior to drug addition to allow for cell attachment. Each cell line was exposed to 12 concentrations of compound (a 6 log range), 5 replicate data points per compound concentration. […] Assays were terminated with 100 μl of ice-cold 50% TCA. […] Optical density was measured at 570 nm. […]
# [2] = test system: HT-1080/DR4 doxorubicin selected MDR (MRP/LRP phenotype) fibrosarcoma cell line; experiment: Cell growth inhibition, SRB assay, HT-1080-DR4; assay type: cell-based, human; details: for IC50: 72-96 h, read-out: IC50 nM (±S.E.) HT-1080-DR4; for Resistance ratio (IC50 resistant cell line/IC50 parental line): MRP/LRP expressing HT1080/DR4 vs HT-1080
# Procedure: as §1, §2
# Assessment of cell growth inhibition was determined in 96 well microtiter plates according to the method of Skehan et al., “New Colorimetric Cytotoxicity Assay for Anticancer-Drug Screening, Articles 82(13):1107-1112 (1990). Briefly, cells were plated with 400-1800 cells/well in 96 well plates and incubated at 37° C. 15-18 hr prior to drug addition to allow for cell attachment. Each cell line was exposed to 12 concentrations of compound (a 6 log range), 5 replicate data points per compound concentration. […] Assays were terminated with 100 μl of ice-cold 50% TCA. After 1 hr at 4° C., plates were washed 5 times with tap water to remove TCA, low-molecular-weight metabolites and serum proteins. 50 μl of 0.4% sulforhodamine B (SRB) was added to each well. Following a five minute incubation at room temperature, plates were rinsed 5 times with 0.1% acetic acid and air dried. Bound dye was solubilized with 10 mM Tris Base (pH 10.5) for 5 min on a gyratory shaker. Optical density was measured at 570 nm.
# Data were fit with the Sigmoid-Emax concentration-effect model (N. H. G. Holford and L. B. Scheiner, “Understanding the dose-effect relationship: Clinical applications of pharmacokinetic-pharmacodynamic models,” Clin. Pharmacokin. 6:429-453 (1981)) with nonlinear regression, weighted by the reciprocal of the square of the predicted response.
# [3] = test system: A121 ovarian carcinoma cell line; experiment: Cell growth inhibition, sulforhodamine B (SRB) assay, A121; assay type: cell-based, human; details: 72-96 h, read-out: IC50 nM (±S.E.) A121
# Procedure: as §1, §2, §3
# [4] = test system: MDA435/LCC6-WT breast carcinoma cell line; experiment: Cell growth inhibition, SRB assay, LCC6-WT; assay type: cell-based, human; details: read-out: IC50 nM (±S.E.) LCC6-WT
# Procedure: as §1, §2
# Assessment of cell growth inhibition was determined in 96 well microtiter plates according to the method of Skehan et al., “New Colorimetric Cytotoxicity Assay for Anticancer-Drug Screening, Articles 82(13):1107-1112 (1990). Briefly, cells were plated with 400-1800 cells/well in 96 well plates and incubated at 37° C. 15-18 hr prior to drug addition to allow for cell attachment. Each cell line was exposed to 12 concentrations of compound (a 6 log range), 5 replicate data points per compound concentration. […] Assays were terminated with 100 μl of ice-cold 50% TCA. After 1 hr at 4° C., plates were washed 5 times with tap water to remove TCA, low-molecular-weight metabolites and serum proteins. 50 μl of 0.4% sulforhodamine B (SRB) was added to each well. Following a five minute incubation at room temperature, plates were rinsed 5 times with 0.1% acetic acid and air dried. Bound dye was solubilized with 10 mM Tris Base (pH 10.5) for 5 min on a gyratory shaker. Optical density was measured at 570 nm. […]
# [5] = Stability of trifluoroacetate product fraction solutions on storage; assay type: physicochemical; details: preparative HPLC fraction solutions, initially 98.8% average purity; 8° C. for 16 days; analytical HPLC
# [6] = test system: LCC6-MDR1 Pgp transfected breast carcinoma cell line; experiment: Cell growth inhibition, SRB assay, LCC6-MDR; details: LCC6-MDR1 variant line overexpressing Pgp vs LCC6-WT
# Procedure: as §1, §2, §3
# [7] = test system: paclitaxel-resistant cells; details: cited from earlier work
# tubulin = details: cited from earlier work
# [8] = Experiment 1, TX-001/TX-002 from 4.0 mM stocks
# [9] = Experiment 2, TX-001/TX-002 from 0.4 mM stocks
molecule,measurement,setting,value
2′-Succinamidyl-PEG2-amine-paclitaxel Acetate [Compound 4],IC50,[1]; [8],4.5 ± 0.4 nM
same,IC50,[1]; [9],19 ± 0.7 nM
same,IC50,[2]; [8],8.9 ± 0.4 nM
same,IC50,[2]; [9],36 ± 1.5 nM
same,IC50,[3]; [8],13 ± 0.5 nM
same,IC50,[3]; [9],37 ± 1.2 nM
same,IC50,[4]; 4.0 mM stock solutions stored at 4° C. for 7 days,2.7 ± 0.4 nM
same,IC50,"[4]; Experiment 1, TX-001/TX-002 from 4.0 mM stocks, 72-96 h",4.9 ± 0.5 nM
same,IC50,"[4]; Experiment 2, TX-001/TX-002 from 0.4 mM stocks, 72-96 h",13 ± 0.5 nM
2′-Succinamidyl-PEG2-amine-paclitaxel Trifluoroacetate [Compound 3],average purity after storage,[5],97.4%
"CC(=O)O.CC(=O)OC1C(=O)C2(C)C(O)CC3OCC3(OC(C)=O)C2C(OC(=O)c2ccccc2)C2(O)CC(OC(=O)C(OC(=O)CCCC(=O)NCCOCCOCCN)C(NC(=O)c3ccccc3)c3ccccc3)C(C)=C1C2(C)C (stereo not shown) [Compound 5, 2′-Glutaramidyl-PEG2-amine-paclitaxel acetate]",Resistance ratio (IC50 resistant cell line/IC50 parental line),[2],1.1-1.5 fold
same,Resistance ratio (IC50 resistant cell line/IC50 parental line),[6],47-60 fold
"CC(=O)O[C@@]12CO[C@@H]1C[C@H](O)[C@@]1(C)C(=O)[C@H](O)C3=C(C)[C@@H](OC(=O)[C@H](O)[C@@H](NC(=O)OC(C)(C)C)c4ccccc4)C[C@@](O)([C@@H](OC(=O)c4ccccc4)[C@H]21)C3(C)C [Docetaxel, docetaxel]",activity relative to paclitaxel,[7],about five times as active as paclitaxel
"CC(=O)O[C@H]1C(=O)[C@@]2(C)[C@H]([C@H](OC(=O)c3ccccc3)[C@]3(O)C[C@H](OC(=O)[C@H](O)[C@@H](NC(=O)c4ccccc4)c4ccccc4)C(C)=C1C3(C)C)[C@]1(OC(C)=O)CO[C@@H]1C[C@@H]2O [Paclitaxel, reference compound]",Resistance ratio (IC50 resistant cell line/IC50 parental line),[2],1.1-1.4 fold
same,Resistance ratio (IC50 resistant cell line/IC50 parental line),[6],65-92 fold
A-nor-paclitaxel,tubulin-assembly activity relative to paclitaxel,tubulin,only three times less than that of paclitaxel
